From US20240293386A1, “NOVEL COMPOUND AS PROTEIN KINASE INHIBITOR” (LG CHEM, LTD., priority 2021, published 2024)

What was measured:
cMET = cMET (Homo sapiens, UniProt P08581); assay: Evaluation of inhibitory activity against MET (TR-FRET); assay type: biochemical; conditions: TR-FRET enzyme assay, cMET protein, TK peptide substrate, ATP
Procedure: In addition, in order to measure the enzyme activity inhibition for cMET, the evaluation was performed in the same manner as the enzyme activity inhibition measurement experiment for RON.
(§1) Specifically, the compound was prepared to a concentration of 1 mM in 100% DMSO and was diluted 10 times in a stepwise manner through 3-fold dilution. The compound (2 μL) diluted in a stepwise manner was added to a 96-well-plate containing 48 μL of a 1× kinase reaction buffer (50 mM HEPES (pH 7.4), 0.05% BSA, 0.005% Tween-20, 1 mM DTT, 0.5 mM MnCl2, 20 mM MgCl2).
The cMET protein was diluted to a concentration of 263 nM in a cMET storage buffer (50 mM Tris-HCl (pH 7.5), 150 mM NaCl, 0.05% Brij35, 1 mM DTT, 10% Glycerol), and then diluted again to a concentration of 2 nM in a 1× kinase reaction buffer. As a substrate cocktail, a MET-specific substrate mixed solution (5 μM TK peptide, 10 mM ATP) was prepared at a concentration 2 times the final reaction concentration.
(§2) Thereafter, a 384-well-plate was prepared, and 2.5 μL of each of the diluted compounds of Examples was added to a corresponding well of experimental group wells, and 2.5 μL of a 4% DMSO solution was dispensed into high control wells and low control wells.
(§3) Thereafter, 2.5 μL of 2 nM cMET was dispensed into each of the high control wells and the experimental group wells, and 2.5 μL of the 1× kinase reaction buffer was added to the low control wells, and all the wells were centrifuged at room temperature for 40 seconds at 1,000 RPM, and then incubated at room temperature for 20-30 minutes. Then, 5 μL of the substrate cocktail (2×) was dispensed into each well, and all the wells were centrifuged at room temperature for 40 seconds at 1,000 RPM, and then incubated at room temperature for 60 minutes. Thereafter, 5 μL of 90 mM EDTA was added to each well to terminate the reaction, and all the wells were then incubated again at room temperature for 5 minutes. Thereafter, 5 μL of a 4× phosphotyrosine antibody (Perkin Elmer) containing europium was added to each well, and all the wells were then incubated at room temperature for 60 minutes. After the incubation, the 384-well-plate was read with the Vison plate reader. In this case, the excitation wavelength was 340 nm, and the emission wavelength was 620 nm and 665 nm. The IC50 value of each compound of Examples was derived using the GraphPd Prism7 program.

RON = RON (Homo sapiens, UniProt Q04912); assay: Evaluation of inhibitory activity against RON (TR-FRET); assay type: biochemical; conditions: TR-FRET enzyme assay, RON protein, ULight-labeled Poly GT substrate, ATP
Procedure: In order to measure the inhibitory activity of each of the compounds of Examples against RON, the IC50 of each of the compounds was measured using Time-resolved fluorescence energy transfer (TR-FRET).
as §1, with “7.4), 0.01%” for “7.4), 0.05% BSA, 0.005%”, “Tween-20, 5” for “Tween-20, 1”, “mM Na3VO4, 2 mM EGTA, 10” for “mM MnCl2, 20”
The RON protein was diluted to a concentration of 49.3 nM in a RON storage buffer (50 mM Tris-HCl (pH 7.5), 150 mM NaCl, 0.5 mM EDTA, 0.02% Triton X-100), and then diluted again to a concentration of 0.4 nM in a 1× kinase reaction buffer. As a substrate cocktail, a RON-specific substrate mixed solution (40 uM ULight-labeled Poly GT, 100 nM ATP) was prepared at a concentration 2 times the final reaction concentration.
as §2
as §3, with “of 0.4” for “of 2”, “nM RON” for “nM cMET”, “of 30” for “of 90”

Sequence of cMET (P08581 25-1390): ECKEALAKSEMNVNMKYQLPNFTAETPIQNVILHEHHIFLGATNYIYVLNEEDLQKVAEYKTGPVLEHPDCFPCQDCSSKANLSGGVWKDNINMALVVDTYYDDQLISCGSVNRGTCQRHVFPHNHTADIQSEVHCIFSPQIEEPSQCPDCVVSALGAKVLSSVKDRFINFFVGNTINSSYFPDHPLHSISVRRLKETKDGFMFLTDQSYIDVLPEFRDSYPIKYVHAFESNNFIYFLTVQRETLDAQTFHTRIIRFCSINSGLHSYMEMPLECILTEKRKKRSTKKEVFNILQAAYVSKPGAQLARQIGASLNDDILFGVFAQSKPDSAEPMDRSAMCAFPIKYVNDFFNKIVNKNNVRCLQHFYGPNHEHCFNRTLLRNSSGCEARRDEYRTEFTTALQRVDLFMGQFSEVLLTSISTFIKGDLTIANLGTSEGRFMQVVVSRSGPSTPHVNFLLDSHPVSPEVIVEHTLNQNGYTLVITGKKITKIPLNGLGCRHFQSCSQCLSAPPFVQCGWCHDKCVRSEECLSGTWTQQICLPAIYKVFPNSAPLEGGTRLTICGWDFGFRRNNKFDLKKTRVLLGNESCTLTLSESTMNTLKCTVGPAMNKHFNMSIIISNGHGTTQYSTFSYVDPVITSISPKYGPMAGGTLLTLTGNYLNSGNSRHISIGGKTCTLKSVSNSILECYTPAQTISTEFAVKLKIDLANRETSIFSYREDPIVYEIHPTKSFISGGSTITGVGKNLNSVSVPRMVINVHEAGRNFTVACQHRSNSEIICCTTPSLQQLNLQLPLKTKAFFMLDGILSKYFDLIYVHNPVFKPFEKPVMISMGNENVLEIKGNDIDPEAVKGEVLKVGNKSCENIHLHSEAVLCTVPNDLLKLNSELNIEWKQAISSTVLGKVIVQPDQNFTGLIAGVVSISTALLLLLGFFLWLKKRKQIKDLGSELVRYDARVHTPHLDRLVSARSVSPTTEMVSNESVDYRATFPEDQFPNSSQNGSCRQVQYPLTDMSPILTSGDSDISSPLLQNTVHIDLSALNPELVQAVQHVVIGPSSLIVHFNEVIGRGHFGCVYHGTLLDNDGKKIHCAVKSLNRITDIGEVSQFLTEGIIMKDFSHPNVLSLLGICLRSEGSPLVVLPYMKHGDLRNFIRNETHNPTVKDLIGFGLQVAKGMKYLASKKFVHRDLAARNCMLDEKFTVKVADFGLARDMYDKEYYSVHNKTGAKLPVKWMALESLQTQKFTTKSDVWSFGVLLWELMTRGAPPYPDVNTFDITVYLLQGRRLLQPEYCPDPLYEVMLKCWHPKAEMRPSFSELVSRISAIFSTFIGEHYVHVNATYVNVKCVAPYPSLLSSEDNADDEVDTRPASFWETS
Sequence of RON (Q04912 25-1400, species assumed): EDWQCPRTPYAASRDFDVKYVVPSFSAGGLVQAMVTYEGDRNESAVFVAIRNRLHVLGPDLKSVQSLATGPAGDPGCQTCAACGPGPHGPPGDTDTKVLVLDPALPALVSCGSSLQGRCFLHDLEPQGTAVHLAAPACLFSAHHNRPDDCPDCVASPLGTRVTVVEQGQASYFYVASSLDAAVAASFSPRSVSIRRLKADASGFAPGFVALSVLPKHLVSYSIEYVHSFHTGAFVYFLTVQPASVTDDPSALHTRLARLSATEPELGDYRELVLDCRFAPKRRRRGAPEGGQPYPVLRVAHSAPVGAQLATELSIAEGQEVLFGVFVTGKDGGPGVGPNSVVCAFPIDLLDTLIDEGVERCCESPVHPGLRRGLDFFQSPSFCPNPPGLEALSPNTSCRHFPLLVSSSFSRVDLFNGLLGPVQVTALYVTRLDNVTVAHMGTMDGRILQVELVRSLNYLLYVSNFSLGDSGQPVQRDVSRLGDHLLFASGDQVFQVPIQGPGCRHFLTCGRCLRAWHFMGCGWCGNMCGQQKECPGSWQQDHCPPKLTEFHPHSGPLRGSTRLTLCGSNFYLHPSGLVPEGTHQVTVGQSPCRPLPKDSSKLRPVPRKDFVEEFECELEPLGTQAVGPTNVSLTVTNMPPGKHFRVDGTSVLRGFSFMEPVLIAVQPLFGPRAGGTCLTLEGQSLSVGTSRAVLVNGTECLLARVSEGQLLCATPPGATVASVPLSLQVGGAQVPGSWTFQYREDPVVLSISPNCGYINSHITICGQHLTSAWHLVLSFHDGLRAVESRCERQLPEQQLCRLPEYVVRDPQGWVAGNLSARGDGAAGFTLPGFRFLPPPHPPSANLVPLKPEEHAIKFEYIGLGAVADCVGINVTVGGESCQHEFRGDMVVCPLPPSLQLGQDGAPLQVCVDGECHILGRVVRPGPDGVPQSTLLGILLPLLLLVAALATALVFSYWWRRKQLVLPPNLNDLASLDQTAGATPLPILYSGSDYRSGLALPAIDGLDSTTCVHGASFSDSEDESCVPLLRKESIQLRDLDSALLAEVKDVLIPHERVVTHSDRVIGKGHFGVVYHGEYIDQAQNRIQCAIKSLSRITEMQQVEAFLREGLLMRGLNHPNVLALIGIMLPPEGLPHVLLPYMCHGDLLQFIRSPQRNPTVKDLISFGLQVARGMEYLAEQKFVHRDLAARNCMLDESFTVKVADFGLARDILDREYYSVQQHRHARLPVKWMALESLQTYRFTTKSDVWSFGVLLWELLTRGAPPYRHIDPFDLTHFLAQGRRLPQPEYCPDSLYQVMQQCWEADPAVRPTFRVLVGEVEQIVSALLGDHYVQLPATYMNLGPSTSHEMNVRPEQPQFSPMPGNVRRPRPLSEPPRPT

| SMILES | IC50 (cMET) [nM] | IC50 (RON) [nM] |
| --- | --- | --- |
| CCOc1ccn(-c2ccc(F)cc2)c(=O)c1C(=O)Nc1ccc(-c2ccc3nc(N)sc3n2)c(C)c1 [Example 1, N-(4-(2-aminothiazolo[5,4-b]pyridin-5-yl)-3-methylphenyl)-4-ethoxy-1-(4-fluorophenyl)-2-oxo-1,2-dihydropyridine-3-carboxamide] | 5230 | 5120 |
| CCOc1ccn(-c2ccc(F)cc2)c(=O)c1C(=O)Nc1ccc(Nc2ccc3nc(N)sc3n2)c(F)c1 [Example 3, N-(4-((2-aminothiazolo[5,4-b]pyridin-5-yl)amino)-3-fluorophenyl)-4-ethoxy-1-(4-fluorophenyl)-2-oxo-1,2-dihydropyridine-3-carboxamide] | 6720 |  |
| Cc1ccc(C(=O)Nc2ccc(Oc3cc(Cl)nn4ccnc34)c(F)c2)c(=O)n1-c1ccc(F)cc1 [Example 6, N-(4-((6-chloroimidazo[1,2-b]pyridazin-8-yl)oxy)-3-fluorophenyl)-1-(4-fluorophenyl)-6-methyl-2-oxo-1,2-dihydropyridine-3-carboxamide] | 8270 |  |
| COc1ccn(-c2ccc(F)cc2)c(=O)c1C(=O)Nc1ccc(-c2ccnc(-c3ccnc(N)n3)c2)c(F)c1 [Example 15, N-(4-(2-(2-aminopyrimidin-4-yl)pyridin-4-yl)-3-fluorophenyl)-1-(4-fluorophenyl)-4-methoxy-2-oxo-1,2-dihydropyridine-3-carboxamide] | 4860 |  |
| Cc1ccc(C(=O)Nc2ccc(-c3ccnc(-c4ccnc(N)n4)c3)c(F)c2)c(=O)n1-c1ccc(F)cc1 [Example 16, N-(4-(2-(2-aminopyrimidin-4-yl)pyridin-4-yl)-3-fluorophenyl)-1-(4-fluorophenyl)-6-methyl-2-oxo-1,2-dihydropyridine-3-carboxamide] | 1490 |  |
| CCOc1ccn(-c2ccc(F)cc2)c(=O)c1C(=O)Nc1ccc(-c2ccc3c(N)n[nH]c3c2)c(F)c1 [Example 18, N-(4-(3-amino-1H-indazol-6-yl)-3-fluorophenyl)-4-ethoxy-1-(4-fluorophenyl)-2-oxo-1,2-dihydropyridine-3-carboxamide] | 496 | 467 |
| CCOc1ccn(-c2ccc(F)cc2)c(=O)c1C(=O)Nc1ccc(-c2ccc3[nH]ncc3c2)c(F)c1 [Example 19] | 6540 |  |
| CCOc1ccn(-c2ccc(F)cc2)c(=O)c1C(=O)Nc1ccc(-c2ccc3snc(N)c3c2)c(F)c1 [Example 21, N-(4-(3-aminobenzo[d]isothiazol-5-yl)-3-fluorophenyl)-4-ethoxy-1-(4-fluorophenyl)-2-oxo-1,2-dihydropyridine-3-carboxamide] | 6030 |  |
| Cc1ccc(C(=O)Nc2ccc(Oc3ccnc(N(C(=O)C4CC4)C(=O)C4CC4)c3Cl)c(F)c2)c(=O)n1-c1ccc(F)cc1 [Example 31, N-(4-((3-chloro-2-(N-(cyclopropanecarbonyl)cyclopropanecarboxamido)pyridin-4-yl)oxy)-3-fluorophenyl)-1-(4-fluorophenyl)-6-methyl-2-oxo-1,2-dihydropyridine-3-carboxamide] | 3550 |  |
| Cc1ccc(C(=O)Nc2ccc(NC(=O)c3cc(Br)cnc3N)c(F)c2)c(=O)n1-c1ccc(F)cc1 [Example 32, 2-amino-5-bromo-N-(2-fluoro-4-(1-(4-fluorophenyl)-6-methyl-2-oxo-1,2-dihydropyridine-3-carboxamido)phenyl)nicotinamide] | 1690 |  |
| Cc1ccc(C(=O)Nc2ccc(NC(=O)c3cc(-c4cnn(C)c4)cnc3N)c(F)c2)c(=O)n1-c1ccc(F)cc1 [Example 34, 2-amino-N-(2-fluoro-4-(1-(4-fluorophenyl)-6-methyl-2-oxo-1,2-dihydropyridin-3-carboxamido)phenyl)-5-(1-methyl-1H-pyrazol-4-yl)nicotinamide] | 1560 | 7880 |

Now those with a lower IC50 (cMET), led by results:

| IC50 (cMET) [nM] | IC50 (RON) [nM] | SMILES |
| --- | --- | --- |
| 11 | 44 | Cc1c(C(=O)Nc2ccc(Oc3ccnc(N)c3Cl)c(F)c2)c(=O)n(-c2ccccc2)n1C [Example 24, N-(4-((2-amino-3-chloropyridin-4-yl)oxy)-3-fluorophenyl)-1,5-dimethyl-3-oxo-2-phenyl-2,3-dihydro-1H-pyrazole-4-carboxamide] |
| 2 | 1 | Cc1ccc(C(=O)Nc2ccc(Oc3ccnc(N)c3Cl)c(F)c2)c(=O)n1-c1ccc(F)cc1 [Example 25, N-(4-((2-amino-3-chloropyridin-4-yl)oxy)-3-fluorophenyl)-1-(4-fluorophenyl)-6-methyl-2-oxo-1,2-dihydropyridine-3-carboxamide] |
| 3 | 3 | Nc1nccc(Oc2ccc(NC(=O)c3ccc(CO)n(-c4ccc(F)cc4)c3=O)cc2F)c1Cl [Example 26, N-(4-((2-amino-3-chloropyridin-4-yl)oxy)-3-fluorophenyl)-1-(4-fluorophenyl)-6-(hydroxymethyl)-2-oxo-1,2-dihydropyridine-3-carboxamide] |
| 6 | 2 | Nc1nccc(Oc2ccc(NC(=O)c3cc(C4CC4)cn(-c4ccc(F)cc4)c3=O)cc2F)c1Cl [Example 27, N-(4-((2-amino-3-chloropyridin-4-yl)oxy)-3-fluorophenyl)-5-cyclopropyl-1-(4-fluorophenyl)-2-oxo-1,2-dihydropyridine-3-carboxamide] |
| 18 | 8 | Nc1nccc(Oc2ccc(NC(=O)c3ccc(C(F)(F)F)n(-c4ccc(F)cc4)c3=O)cc2F)c1Cl [Example 28, N-(4-((2-amino-3-chloropyridin-4-yl)oxy)-3-fluorophenyl)-1-(4-fluorophenyl)-2-oxo-6-(trifluoromethyl)-1,2-dihydropyridine-3-carboxamide] |
| 54 | 82 | Cc1c(C(=O)Nc2ccc(Oc3ccnc(N)c3Cl)c(F)c2)c(=O)n(-c2ccccc2)n1CC(C)(C)O [Example 29, N-(4-((2-amino-3-chloropyridin-4-yl)oxy)-3-fluorophenyl)-1-(2-hydroxy-2-methylpropyl)-5-methyl-3-oxo-2-phenyl-2,3-dihydro-1H-pyrazole-4-carboxamide] |
| 12 | 25 | Cc1ccc(C(=O)Nc2ccc(Oc3ccnc(NC(=O)C4CC4)c3Cl)c(F)c2)c(=O)n1-c1ccc(F)cc1 [Example 30, N-(4-((3-chloro-2-(cyclopropanecarboxamido)pyridin-4-yl)oxy)-3-fluorophenyl)-1-(4-fluorophenyl)-6-methyl-2-oxo-1,2-dihydropyridine-3-carboxamide] |
| 14 | 7 | Cc1ccc(C(=O)Nc2ccc(Oc3ncnc(N)c3Cl)c(F)c2)c(=O)n1-c1ccc(F)cc1 [Example 36, N-(4-((6-amino-5-chloropyrimidin-4-yl)oxy)-3-fluorophenyl)-1-(4-fluorophenyl)-6-methyl-2-oxo-1,2-dihydropyridine-3-carboxamide] |
